The IC50 is the concentration at which inhibition is half-maximal. For orientation: AUC(0-inf) means total exposure, with the tail of the curve extrapolated. A lower AUC(0-inf) goes with low exposure. The term half-life denotes the time needed for the level to fall by half in the phase considered.

Where two headings read alike, the source gives them in different places.

Results on one compound are retold here after paper PMC12389006, “In Vitro and In Vivo Evaluation of Alectinib-Loaded Dendrimer Nanoparticles as a Drug Delivery System for Non-Small Cell Lung Carcinoma” (Pharmaceutics, 2025).

The test system of series [1] is resistance-induced overexpressed TGF-α HGF cells. Also noted: method as in PMID 31857951. Conditions: cited from earlier work.
Details of series [2]: method as in PMID 36015320. To be noted: cited from earlier work.
Series [3] has as its system NCI-H2228 (lung cancer). Conditions: cited from earlier work.
The nature of series [4]: Pharmacokinetic study in rats, LC-MS/MS of plasma. Format: in vivo, Wistar rats. To be noted: rat, 20 mg/kg oral; for AUC0-t: 20 mg/kg. The method, then:
Quantification and identification of Alectinib were performed using liquid chromatography coupled with mass spectrometry (LC/MS), employing rosuvastatin as the internal standard (IS). […] Detection was carried out with an API-3000 triple quadrupole mass spectrometer (LCMS-2010A, Shimadzu, Japan) featuring an electrospray ionization (ESI) source operated in positive ion mode. […] Detection was achieved using multiple reaction monitoring (MRM) for specific m/z transitions. […] Prior to the experiment, the animals were fasted overnight with free access to water and were marked on the tail for individual identification. The rats were randomly divided into two groups. […] Blood samples were collected from the tail after warming for 30 s using a hot pad to facilitate sampling. […] Sample preparation was carried out using the liquid–liquid extraction (LLE) technique. Frozen plasma samples were thawed at room temperature, vortexed to ensure uniform mixing, and combined with 500 µL acetonitrile (ACN) as diluent, 300 µL plasma, and 50 µL rosuvastatin as the internal standard. The mixture was vortexed for 2 min, centrifuged at 4000 rpm for 15 min, and 200 µL of the supernatant was transferred into LC-MS insert vials. Subsequently, 20 µL of the processed sample was analyzed using LC-MS/MS for quantification and pharmacokinetic evaluation.

Series [5] relates to A549 cells. Kind of series: Scratch-wound assay for cell migration. Format: cell-based, human. Conditions: A549, 72 h. On the procedure:
After the cells reached full confluence and formed a uniform monolayer, a scratch approximately 1 mm wide was created across the cell layer using a sterile 200 μL micropipette tip. The wells were then gently washed with phosphate-buffered saline (PBS) to remove cellular debris. […] To evaluate wound closure, images of the scratch area were captured at the start of the experiment (0 h) and after 72 h of treatment. Image analysis was performed using ImageJ® software (version 1.4.3.67, Symmetry Software) to measure the wound area and assess cell migration quantitatively

Series [6] deals with A549 cells. More on the design: method as in Ata et al. To be noted: ref Ata et al.; cited from earlier work.
The test system of series [7] is KARPAS 299. Conditions: cited from earlier work.
Series [8] can be described thus: In vitro drug release, dialysis method in PBS. Format: physicochemical. Conditions: pH 6.8 PBS, 1.5% SLS, 37 °C. The method, then:
In vitro drug release studies were performed using the dialysis method. A drug release study was conducted in vitro to measure the amount of drug released from the complex. […] The dissolution study was conducted using the USP II apparatus (paddle) under the following conditions: a stirring speed of 100 rpm, a temperature of 37.0 ± 0.5 °C, and volume of release media of 200 mL. The NP samples were placed in a plastic tube sealed with a dialysis membrane with a molecular weight cut-off (MWCO) of 14,000 Da, which was previously soaked in either buffer for 24 h. […] At predetermined time intervals, 1 mL aliquots were withdrawn and promptly replaced with fresh media. The collected samples were filtered by a 0.22 µm filter membrane and were subsequently injected into the HPLC system at a wavelength of 340 nm.

The conditions of series [9]: pH 1.2 and 2.5; cited from earlier work.
The test system of series [10] is A549 lung cancer cell line. Kind of series: MTT cytotoxicity assay. Format: cell-based. Conditions: Homo sapiens, A549, 72 h. On the procedure:
The A549 cell line, composed of human alveolar basal epithelial adenocarcinoma cells, was used for the in vitro evaluation. Cells were obtained from ATCC through the Faculty of Pharmacy […] University. To maintain the A549 lung cancer cell line, Roswell Park Memorial Institute (RPMI) was employed. The medium was supplemented with 2 mL of L-glutamine, 50 mL of fetal bovine serum (FBS), and 5 mL of penicillin-streptomycin. The frozen A549 cell vials, stored in liquid nitrogen at approximately -196 °C, were quickly thawed at 37 °C in a water bath. The contents were then diluted with 10 mL of pre-warmed media and then centrifuged at 1500 rpm for 10 min. After discarding the supernatant, the tube was gently agitated to disperse the cells, and fresh medium (15 mL) was added. […] Their confluency level was maintained within the ideal range of 80-90%. To assess cell viability, a 1:1 mixture of 50 μL of Trypan blue stain and 50 μL of cell solution was prepared in an Eppendorf tube. Then, 5 × 10^3 cells were inoculated into individual wells of 96-well microplates using 100 μL of medium. […] Negative control wells received 0.1% DMSO, while blank wells were filled with RPMI medium without cells. […] The absorbance of the formazan solution in each well was promptly quantified at 590 nm utilizing a 96-well plate reader manufactured by Biotech, and the IC50 values were calculated according to Equation (2).
(In general: Tetrazolium assays rely on reduction of a dye to a coloured formazan, in cell work by metabolically active cells.)

The test system of series [11] is H460 large lung cancer cells. Format: in vivo. Conditions: H460 xenograft mice, 20 mg/kg.
Experimental: This study involved 24 male BALC mice, aged 5 weeks and weighing 20 ± 2 g, housed under controlled environmental conditions (temperature: 25.2 °C, humidity: 60 ± 5%, 12 h light–dark cycle) with ad libitum access to standard rodent chow and autoclaved water. […] Human lung large-cell carcinoma (H460) cells were cultured in RPMI 1640 medium, prepared through trypsinization and centrifugation, and underwent viability testing with Trypan blue exclusion, then were suspended in ECM Matrigel®. After 21 days of immunosuppression with 5 mg/kg dexamethasone administered intraperitoneally each mouse was subcutaneously injected in the right flank with 2.5 × 10^6 viable H460 cells. Tumor growth was monitored for 14 days using caliper measurements.
To establish an immunosuppressed xenograft model, dexamethasone (5 mg/kg) was administered to all mice for 21 days to suppress their immune response (Figure S8). Following immunosuppression, 2.5 × 10^6 H460 large lung cancer cells were subcutaneously injected into the mice, and tumor growth was monitored every day.
Details of series [12]: method as in PMID 36015320. To be noted: cited from earlier work. This is another data set of the same source.
Series [13] has as its system nB1 (neuroblastoma). To be noted: cited from earlier work.

On to `CCc1cc2c(cc1N1CCC(N3CCOCC3)CC1)C(C)(C)c1[nH]c3cc(C#N)ccc3c1C2=O.Cl` [Alectinib, 9-ethyl-6,6-dimethyl-8-[4-(morpholine-4-yl)piperidin-1-yl]-11-oxo-6,11-dihydro-5H-benzo[b]carbazole-3-carbonitrile hydrochloride], for which the IC50 in series [1] is 38.2 nM; in series [3], 53 nM; in series [6] it was 9.63 µg/mL; in series [7] it was 3 nM; in [10], 4190 nM; in [13] it was 4.5 nM. Besides, the permeability in [2] is 250 ×10⁻⁶ cm/s. For the same compound, the total exposure AUC(0-inf) in [4] (male, Wistar, plasma) is 11800 ng·h/mL. Besides, in series [4] (male, Wistar, plasma), the half-life is 15.4 ± 1.6 h. The compound further had a k el in series [4] (male, Wistar, plasma) of 1.25e-05 s⁻¹. Also, the AUC0-t was found to be 9840 ng·h/mL in [4] (male, Wistar, plasma, po, read-out: AUC0-t) and 9842.03 ± 3986 ng·h/mL in [4] (listed as Free Alectinib). For the same compound, the C-max in series [4] is recorded as 313.83 ± 150.83 ng/mL. In series [4], this compound gave a T-max of 9.33 ± 1.1 h. In series [4] (assumption of linear absorption), the “absorption rate constant (Ka)” value is 0.43 h⁻¹. For the same compound, the “scratch assay outcome in words” value in series [5] is on record as “completely eradicated the cells”. In addition, in series [8], the “Alectinib released over 48 h” value is 11.1% ± 0.11. Moreover, in [9], the “stability at low pH” value is “degradation of Alectinib at low pH”. The “tumor outcome in words after 17 days of treatment” value in [11] was “minimal amount of residual tumor tissue”. Moreover, the “tumor regression / reduction after 17 days of treatment” value in [11] was found to be 75%. In addition, in series [12], the absolute bioavailability was 37%.
